# Assay results reported in patent US20230331918A1, “AMMONIUM AND SULFONIUM SULFONATE ZWITTERIONS AND POLYMERS DERIVED THEREFROM” (University of Massachusetts, priority 2022, published 2023).
# Experiment: Solubility of monomers and polymers in water, methanol, chloroform
# Format: physicochemical
# Text: Monomer solubility (e.g., in water, methanol, or chloroform) varied with the selection of R-groups on the ammonium cation.
Compound,"solubility (methanol, organic solvent or mixture, monomer, room temperature, read-out: Monomer solubility in MeOH (clear solution)) [mg/mL]",Monomer solubility in MeOH (similar concentration (˜500 mg mL-1))
"C=Cc1ccc(CC(CC[N+](CCC)(CCC)CCC)S(=O)(=O)[O-])cc1 (centres unmarked) [tri-n-propyl derivative, 4-(Tripropylammonio)-1-(4-vinylphenyl)butane-2-sulfonate]",~500,
"C=Cc1ccc(CC(CC[N+](CCCC)(CCCC)CCCC)S(=O)(=O)[O-])cc1 (centres unmarked) [tri-n-butyl derivative, 4-(Tributylammonio)-1-(4-vinylphenyl)butane-2-sulfonate]",,required slightly elevated temperatures to attain solubility in MeOH
